How the values were obtained:
[1] = tested on: mouse bone marrow-derived DC; assay: Immunoblot of DAP12 and Syk phosphorylation in mouse DC; format: cell-based
Protocol: FIG. 6A to 6C is a series of histograms and pictures showing that TREM-2 is recruited into the MTAb-induced cap on mouse DC and expression of TREM-2 is important for MTAb-induced phosphorylation of the adapter DAP-12 and the protein kinase Syk. FIG. 6A: six day cultures of bone marrow-derived mouse DC were differentiated in GM-CSF and IL-4 were tagged with antibodies specific for the class II molecule IA^b (25-9-17-APC) and for TREM-2 (237916-PE) for 15 minutes prior to stimulation with the MTAb B7-DC XAb (open histograms) or with isotype control antibody sHIgM39 (filled histograms). Cells were fixed in 0.1% paraformaldehyde prior to analysis by flow cytometry. FRET between PE and APC was assessed collecting light emitted by APC following excitation of PE with a 488 nm laser. Expression of TREM-2 on the cells was assessed by staining with 237916-PE antibody alone (open histogram) or isotype control antibody (closed histogram, bottom-right panel). For FIG. 6B, mouse bone marrow-derived DC were transduced on day 2 of culture with a retrovirus expressing an […] specific for TREM-2 or a control virus containing a scrambled sequence. On day 5 of culture, the transduced cells were not treated (0′ time), activated with the isotype control antibody sHIgM39, or activated with B7-DC XAb for 5 minutes. DAP12 was immunoprecipitated from cell lysates with antibody MC457, resolved by electrophoresis, and the blotted filters were probed with the phosphotyrosine-specific antibody 4G10. FIG. 6C: the lysates used in the experiments from FIG. 6B were immunoprecipitated with the Syk-specific antibody (4D10) and analyzed by western blot for the presence of phosphotyrosine.
For transducing DC with the virus, 1 ml of supernatant containing the scrambled virus or shDNA containing dominant negative TREM-2 virus was mixed with 2 ml of RPMI. Cytokines were added to a final concentration of 10 ng/ml murine GM-CSF and 1 ng/ml murine IL-4 at day 2 of DC culture. […]
In experiments involving assessment of the phosphorylation status of various protein kinases using whole cell lysate, dendritic cells of mouse or human origin or Jurkat cells were stimulated at the indicated times with control antibody or B7-DC XAb, and were lysed on ice for 10 minutes in 1 ml buffer containing 20 mM Tris-HCl, 40 mM NaCl, 5 mM EDTA, 50 mM NaF, 30 mM Na4P2O7, 0.1% BSA, 1 mM Na3VO4, 1 mM PMSF, 5 μg/ml aprotinin, 10 μg/ml leupeptin, and 1% Triton X-100. […] Tyrosine-phosphorylated proteins were detected using the anti-phosphotyrosine specific antibody, 4G10, followed by goat anti-mouse IgG coupled to Horse Radish Peroxidase (Santa Cruz Biotechnology) and the SuperSignal detection system (Pierce Biotechnology, Rockford, Ill.). […]

[2] = tested on: matured mouse DC; assay: Antigen uptake assay, matured mouse DC; format: cell-based
Protocol: For transducing DC with the virus, 1 ml of supernatant containing the scrambled virus or shDNA containing dominant negative TREM-2 virus was mixed with 2 ml of RPMI. Cytokines were added to a final concentration of 10 ng/ml murine GM-CSF and 1 ng/ml murine IL-4 at day 2 of DC culture. Cells were maintained for another 3 days before using the DC for antigen uptake assay as mentioned above or for analysis of phosphorylation status of DAP12 and Syk proteins.
Antigen uptake experiments were carried out as described previously (Radhakrishnan et al. (2005) Proc. Natl. Acad. Sci. U.S.A. 102:11438-11443). Day 5 DC were matured with TLR ligand CpG-ODN for mouse DC, or with pI:C for human DC. The matured cells were incubated with ovalbumin labeled with FITC or APC and control antibody or B7-DC XAb for two hours, washed and analyzed by FACSCALIBUR™ (Becton Dickinson). In studies involving inhibitors, cells were pretreated 30 minutes as indicated or at 10 μM concentration prior to addition of control antibody or B7-DC XAb. In vivo antigen uptake assays involving wild type or TREM-2−/− mice were carried out by intravenous injection of 10 μg of control antibody or B7-DC XAb on three consecutive days (days −1, 0 and +1). Ovalbumin coupled to FITC was injected in the right foot pad at 1 mg/ml in PBS at […]. The draining lymph node cells were harvested 48 hours after injection of antigen, and stained with anti-mouse CD11c-PE. The data are expressed as percent green cells (ovalbumin-FITC) that are positive for CD11c.

[3] = tested on: CpG-treated DCs; assay: Antigen persistence in CpG-treated DCs; format: cell-based, mouse; settings: CpG-treated wild type DCs or B7DC−/− DCs
Protocol: FIG. 15 is a series of histograms showing restoration of antigen persistence in CpG-treated DCs expressing Kb-peptide constructs upon treatment with the appropriate MTab. DCs were untreated (blue) or treated with 10 ug/mL CpG (red) 48 hours prior to harvesting. They were then pulsed with Ovalbumin-Alexa647 and either hIgM12, hIgM22, or 28-13-3, and Ovalbumin-647 levels were measured in CD11c positive cells by flow cytometry.
The ability of Kb-peptide expressing DCs to alter antigen processing was then tested. Untreated DCs take up fluorochrome-labeled protein, and the fluorochrome labeled protein persists over 24 hours, as measured by flow cytometry. DCs treated with a Toll receptor agonist (LPS, CpG, or Polyl:C) 24 hours prior to addition of protein lose their ability to take up and maintain this antigen. […] The ability of B7DC−/− DCs transduced with the Kb-peptide constructs was compared to wild type DCs or knockouts transduced with B7DC.

[4] = DC transduced with scrambled shDNA

B7-DC XAb: human monoclonal IgM from a Waldenstrom's macroglobulinemia patient that binds and cross-links B7-DC on DC
phosphorylation of DAP12 and Syk [1, 4]: proceeded in the same manner | phosphorylation of DAP12 and Syk ([1]; DC transduced with shDNA for TREM-2): absence of phosphorylation of DAP12 and Syk | phosphorylation of DAP12 and Syk ([1]; TREM-2 KO DC): not induced | phosphorylation of DAP12 and Syk ([1]; wild type DC): readily induced | antigen uptake ([2]; DC from CD40 KO mice): displayed enhanced antigen uptake | ovalbumin uptake by matured DC [2, 4]: enhanced ovalbumin uptake | ovalbumin uptake by matured DC ([2]; TREM-2 KO DC): did not regain the ability to take up ovalbumin | antigen persistence [3]: restored to untreated levels

Reference: patent publication US11274131B2, “IgM-mediated receptor clustering and cell modulation” (MAYO FOUNDATION FOR MEDICAL EDUCATION AND RESEARCH, priority 2007, dated 2022)
